What was measured:
Format in all cases: in vivo
Stellaria media (STEME) [1] = test: Herbicidal pre-emergence action, section A (Table A9); settings: application rate 320 g/ha
Summary of the method: (§1)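 WP/EC formulations, aqueous, 0.5% additive, 600 l/ha → soil surface over seeds in sandy loam → greenhouse, optimum growth → visual % damage vs untreated at ca. 3 weeks.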

Veronica persica (VERPE) = test: Herbicidal pre-emergence action, section A (Table A10); settings: application rate 1280 g/ha
Summary of the method: as §1

Kochia scoparia (KCHSC) [2] = test: Herbicidal pre-emergence action, section A (Table A4); settings: visual grading after ca. 3 weeks vs untreated controls
Summary of the method: as §1

Setaria viridis (SETVI) [3] = test: Herbicidal post-emergence action, section B (Table B8); settings: application rate 1280 g/ha; visual rating about 3 weeks after treatment vs untreated controls
Summary of the method: (§2)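 Visual percent control about 3 weeks post-spray, relative to untreated plants. Application was to foliage at the one-leaf stage (2 to 3 weeks after sowing in sandy loam), using WP or EC formulations in water with 0.5% additive at 600 liters per hectare.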

Lolium rigidum (LOLRI) [4] = test: Herbicidal pre-emergence action, section A (Table A5); settings: visual grading after ca. 3 weeks vs untreated controls
Summary of the method: as §1

Setaria viridis (SETVI) [5] = test: Herbicidal pre-emergence action, section A (Table A8); settings: application rate 1280 g/ha
Summary of the method: as §1

[6] = tested on: Alopecurus myosuroides (ALOMY); test: Herbicidal pre-emergence action, section A (Table A2); settings: application rate 1280 g/ha; visual grading after ca. 3 weeks vs untreated controls
Summary of the method: as §1

[7] = tested on: Matricaria inodora (MATIN); test: Herbicidal post-emergence action, section B (Table B6); settings: application rate 1280 g/ha; visual rating about 3 weeks after treatment vs untreated controls
Description: (§3) Seeds of mono- and dicotyledonous weed plants were placed in plastic pots in sandy loam soil (doubly sown with in each case one species of mono- or dicotyledonous weed plants per pot), covered with soil and cultivated in a greenhouse under controlled growth conditions. 2 to 3 weeks after sowing, the test plants were treated at the one-leaf stage. The compounds of the invention, formulated in the form of wettable powders (WP) or as emulsion concentrates (EC), were applied onto the green parts of the plants as aqueous suspension or emulsion with addition of 0.5% additive at a water application rate of 600 liters per hectare (converted). After the test plants had been kept in the greenhouse under optimum growth conditions for about 3 weeks, the activity of the preparations was rated visually in comparison to untreated controls. For example, 100% activity=the plants have died, 0% activity=like control plants.

[8] = tested on: Echinochloa crus-galli (ECHCG); test: Herbicidal post-emergence action, section B (Table B3); settings: application rate 1280 g/ha, rated visually after about 3 weeks
Summary of the method: as §2

[9] = tested on: Matricaria inodora (MATIN); test: Herbicidal pre-emergence action, section A (Table A6); settings: visual grading after ca. 3 weeks vs untreated controls
Summary of the method: as §1

Poa annua (POAAN) [10] = test: Herbicidal post-emergence action, section B (Table B7); settings: visual rating about 3 weeks after treatment vs untreated controls
Summary of the method: as §2

[11] = tested on: Abutilon theophrasti (ABUTH); test: Herbicidal pre-emergence action, section A (Table A1); settings: visual grading after ca. 3 weeks vs untreated controls
Excerpt: Seeds of mono- and dicotyledonous weed plants were sown in plastic pots (double sowings with one species of mono- and one species of dicotyledonous weed plants per pot), in sandy loam, and covered with soil. The compounds according to the invention, formulated in the form of wettable powders (WP) or as emulsifiable concentrates (EC), were applied to the surface of the covering soil as aqueous suspension or emulsion, with the addition of 0.5% of an additive, at an application rate of 600 l of water per hectare (converted). Following treatment, the pots were placed in a greenhouse and kept under optimum growth conditions for the test plants. The visual grading of the damage to the test plants was carried out after ca. 3 weeks in comparison to untreated controls (herbicidal effect in percent (%): 100% effect=plants have died off, 0% effect=as control plants).

Poa annua (POAAN) [12] = test: Herbicidal pre-emergence action, section A (Table A7); settings: application rate 320 g/ha; visual grading after ca. 3 weeks vs untreated controls
Summary of the method: as §1

[13] = tested on: Echinochloa crus-galli (ECHCG); test: Herbicidal pre-emergence action, section A (Table A3); settings: visual grading after ca. 3 weeks vs untreated controls
Summary of the method: as §1

[14] = tested on: Digitaria sanguinalis (DIGSA); test: Herbicidal pre-emergence action, section A (Table A12); settings: application rate 320 g/ha
Summary of the method: as §1

[15] = tested on: Amaranthus retroflexus (AMARE); test: Herbicidal pre-emergence action, section A (Table A11); settings: application rate 320 g/ha
Summary of the method: as §1

[16] = tested on: Triticum aestivum (TRZAS); test: Pre-emergence effects on crop plants, section D (Table D2); settings: application rate 320 g/ha; visual grading after ca. 3 weeks
Excerpt: (§4) Seeds of mono- and dicotyledonous weed plants and crop plants were sown, in plastic or organic planting pots, in sandy loam and covered with soil. The compounds according to the invention, formulated in the form of wettable powders (WP) or as emulsifiable concentrates (EC), were applied to the surface of the covering soil as aqueous suspension or emulsion, with the addition of 0.5% of an additive, at an application rate of 600 l of water/ha (converted).
(§5) Following treatment, the pots were placed in a greenhouse and kept under optimum growth conditions for the test plants. The visual grading of the damage to the test plants was carried out after ca. 3 weeks in comparison to untreated controls (herbicidal effect in percent (%): 100% effect=plants have died off, 0% effect=as control plants).
(§6) Tables D1 to D5 below show the effects of various compounds of the general formula (I) according to Table 1 on various crop plants and an application rate corresponding to 320 g/ha or below obtained by the experimental procedure mentioned above in Biological Examples, Section C.

Brassica napus (BRSNW) [17] = test: Pre-emergence effects on crop plants, section D (Table D5); settings: application rate 80 g/ha; visual grading after ca. 3 weeks
Excerpt: as §4, §5, §6

Zea mays (ZEAMX) [18] = test: Pre-emergence effects on crop plants, section D (Table D1); settings: application rate 320 g/ha; visual grading after ca. 3 weeks
Excerpt: as §4, §5, §6

Glycine max (GLXMA) [19] = test: Pre-emergence effects on crop plants, section D (Table D4); settings: application rate 80 g/ha; visual grading after ca. 3 weeks
Excerpt: as §4, §5, §6

Brassica napus (BRSNW) [20] = test: Post-emergence effects on crop plants, section F (Table F5); settings: Brassica napus, 504 h, application rate 320 g/ha, read-out: post-emergence activity against BRSNW in %
Excerpt: (§7) Seeds of mono- and dicotyledonous weed plants and crop plants were sown, in plastic or organic planting pots, in sandy loam, covered with soil and grown in a greenhouse under controlled growth conditions. 2 to 3 weeks after sowing, the test plants were sprayed in the single-leaf stage. The compounds according to the invention, formulated in form of wettable powders (WP) or as emulsifiable concentrates (EC), were sprayed onto the green plant parts as aqueous suspension or emulsion, with the addition of 0.5% of an additive, at an application rate of 600 l of water/ha (converted). The test plants were placed in the greenhouse for ca. 3 weeks under optimum growth conditions, and then the effect of the preparations was assessed visually in comparison with untreated controls (herbicidal effect in percent (%): 100% effect=plants have died off, 0% effect=as control plants). Tables F1 to F4 below show the effects of selected compounds of the general formula (I) according to Table 1 on various crop plants and an application rate corresponding to 320 g/ha or below obtained by the experimental procedure mentioned above.

[21] = tested on: Triticum aestivum (TRZAS); test: Post-emergence effects on crop plants, section F (Table F2); settings: Triticum aestivum, 504 h, application rate 320 g/ha, read-out: post-emergence activity against TRZAS in %
Excerpt: as §7

Glycine max (GLXMA) [22] = test: Post-emergence effects on crop plants, section F (Table F4); settings: Glycine max, 504 h, application rate 320 g/ha, read-out: post-emergence activity against GLXMA in %
Excerpt: as §7

Zea mays (ZEAMX) [23] = test: Post-emergence effects on crop plants, section F (Table F1); settings: Zea mays, 504 h, application rate 320 g/ha, read-out: post-emergence activity against ZEAMX in %
Excerpt: as §7

Stellaria media (STEME) [24] = test: Herbicidal post-emergence action, section B (Table B9); settings: application rate 320 g/ha; visual rating about 3 weeks after treatment vs untreated controls
Summary of the method: as §2

[25] = tested on: Amaranthus retroflexus (AMARE); test: Herbicidal post-emergence action, section B (Table B11); settings: application rate 1280 g/ha; visual rating about 3 weeks after treatment vs untreated controls
Summary of the method: as §2

Kochia scoparia (KCHSC) [26] = test: Herbicidal post-emergence action, section B (Table B4); settings: application rate 1280 g/ha; visual rating about 3 weeks after treatment vs untreated controls
Summary of the method: as §2

[27] = tested on: Abutilon theophrasti (ABUTH); test: Herbicidal post-emergence action, section B (Table B1); settings: application rate 320 g/ha, rated visually after about 3 weeks
Summary of the method: as §2

Lolium rigidum (LOLRI) [28] = test: Herbicidal post-emergence action, section B (Table B5); settings: application rate 1280 g/ha; visual rating about 3 weeks after treatment vs untreated controls
Description: as §3

Structure (SMILES): COC(=O)CS(=O)(=O)N1CSc2cc(C)c(-c3ccccc3F)nc21 [Example I-121]
- pre-emergence activity against STEME in % (Stellaria media (STEME) [1]): 90%
- pre-emergence activity against VERPE in % (Veronica persica (VERPE)): 90%
- pre-emergence activity against KCHSC in % (Kochia scoparia (KCHSC) [2]; application rate 320 g/ha): 90%
- post-emergence activity against SETVI in % (Setaria viridis (SETVI) [3]): 90%
- pre-emergence activity against LOLRI in % (Lolium rigidum (LOLRI) [4]; application rate 320 g/ha): 100%
- pre-emergence activity against SETVI in % (Setaria viridis (SETVI) [5]): 100%
- pre-emergence activity against ALOMY in % [6]: 90%
- post-emergence activity against MATIN in % [7]: 90%
- post-emergence activity against ECHCG in % [8]: 90%
- pre-emergence activity against MATIN in % ([9]; application rate 320 g/ha): 90%
- post-emergence activity against POAAN in % (Poa annua (POAAN) [10]; application rate 320 g/ha): 90%
- pre-emergence activity against ABUTH in % ([11]; application rate 1280 g/ha): 90%
- pre-emergence activity against POAAN in % (Poa annua (POAAN) [12]): 100%
- pre-emergence activity against ECHCG in % ([13]; application rate 320 g/ha): 100%
- pre-emergence activity against DIGSA in % [14]: 100%
- pre-emergence activity against AMARE in % [15]: 90%

Structure (SMILES): CCS(=O)(=O)N1CS(=O)(=O)c2cc(C)c(-c3ccccc3F)nc21 [Example I-146, 3-(ethylsulfonyl)-5-(2-fluorophenyl)-6-methyl-2,3-dihydro[1,3]thiazolo[4,5-b]pyridine 1,1-dioxide]
- pre-emergence activity against TRZAS in % (crop plant damage) [16]: 0%
- pre-emergence activity against BRSNW in % (crop plant damage) (Brassica napus (BRSNW) [17]): 0%
- pre-emergence activity against ZEAMX in % (crop plant damage) (Zea mays (ZEAMX) [18]): 0%
- pre-emergence activity against GLXMA in % (crop plant damage) (Glycine max (GLXMA) [19]): 0%
- crop plant damage (phytotoxicity) in % at 320 g/ha (Brassica napus (BRSNW) [20]): 0%
- percent crop plant damage (wheat, post-emergence) at 320 g/ha [21]: 0%
- percent crop plant damage at 320 g/ha (Glycine max (GLXMA) [22]): 0%
- percent crop plant damage (phytotoxicity) on Zea mays, post-emergence at 320 g/ha (Zea mays (ZEAMX) [23]): 0%

Structure (SMILES): Cc1cc2c(nc1-c1cccc(F)c1F)N(C(=O)C1(C)CC(Cl)=NO1)CS2 (stereo not shown) [Example I-152]
- pre-emergence activity against STEME in % (Stellaria media (STEME) [1]): 90%
- pre-emergence activity against VERPE in % (Veronica persica (VERPE)): 90%
- pre-emergence activity against KCHSC in % (Kochia scoparia (KCHSC) [2]; application rate 1280 g/ha): 100%
- post-emergence activity against SETVI in % (Setaria viridis (SETVI) [3]): 90%
- pre-emergence activity against LOLRI in % (Lolium rigidum (LOLRI) [4]; application rate 1280 g/ha): 100%
- post-emergence activity against STEME in % (Stellaria media (STEME) [24]): 90%
- post-emergence activity against AMARE in % [25]: 100%
- pre-emergence activity against SETVI in % (Setaria viridis (SETVI) [5]): 100%
- pre-emergence activity against ALOMY in % [6]: 90%
- post-emergence activity against KCHSC in % (Kochia scoparia (KCHSC) [26]): 90%
- post-emergence activity against ABUTH in % [27]: 90%
- pre-emergence activity against MATIN in % ([9]; application rate 1280 g/ha): 90%
- post-emergence activity against LOLRI in % (Lolium rigidum (LOLRI) [28]): 90%
- post-emergence activity against POAAN in % (Poa annua (POAAN) [10]; application rate 1280 g/ha): 90%
- pre-emergence activity against ABUTH in % ([11]; application rate 320 g/ha): 90%
- pre-emergence activity against POAAN in % (Poa annua (POAAN) [12]): 100%
- pre-emergence activity against ECHCG in % ([13]; application rate 1280 g/ha): 90%
- pre-emergence activity against DIGSA in % [14]: 90%
- pre-emergence activity against AMARE in % [15]: 100%
